Patent US9388139B2, “Derivatives of celeboxib, use thereof and preparation thereof” (German University, priority 2011, dated 2016)

Tests used:
COX2 = COX2 (Ovis aries (Sheep), UniProt P79208); assay: COX-2 activity, colorimetric assay; format: biochemical, ovine; settings: screening dose 100 μM; read-out: IC50 μM against COX2
Procedure: Compounds according to the present disclosure were tested for their in vitro ability to inhibit recombinant human PDE5, COX1 and COX2 enzymes at screening doses of 50, 100 and 100 μM respectively.
COX-1 and COX-2 activities were measured using purified ovine COX-1 and COX-2 with colorimetric assay kits obtained from Cayman Chemical Co. (Ann Arbor, Mich.). The activities of COX-1 and COX-2 were measured after the addition of arachidonic acid and incubation at 25° C. for 5 min by absorbance at 590 nm as specified by the manufacturer.

[1] = test system: human tumor cell lines of different origins; assay: Tumor cell growth inhibition panel, overall; format: cell-based; settings: in words; including the adriamycin resistant cell line ADR/NCl-RES
Procedure: (§1) Thus, compound 12 is able to show broad spectrum tumor cell growth inhibitory activity independent of cyclooxygenase inhibition, whereas PDE5 may be the major contributor to such activity.
(§2) The human tumor cell lines were purchased from the American Type Culture Collection (Mansassas, Va.) and maintained in RPMI-1640+2.0 g/L glucose pH 7.4+5% FBS+4 mM glutamine (complete growth medium), incubated at 37° C. in 5% CO2, and passaged at subconfluent density. The human fetal colon FHC cells were cultured in DMEM:F12 medium supplemented with 10% FBS, cholera toxin (10 ng/mL), 5 μg/ml transferrin, 5 μg/ml insulin, and 100 ng/ml hydrocortisone. The passage number was routinely limited to approximately 20 and morphology monitored with each passage, but no additional authentication of the cell lines was performed.
Cells were plated in 96-well microtiter plates at a density of 5,000 cells per well and allowed to adhere overnight prior to treatment. Cells were treated with a 2-log concentration range of either SS or SBA and incubated for an additional 72 hours. For siRNA assays, cells were transfected in OptiMEM media with 0.5% SureFECT transfection reagent and 200 nmol/L of either negative control or PDE5 siRNA and incubated at 37° C. for 24 h prior to treatment. […]

PDE2A = PDE2A (Homo sapiens (Human), UniProt O00408); assay: PDE isozyme selectivity, IMAP assay; format: biochemical
Procedure: PDE activity was measured using the IMAP fluorescence polarization assay (Molecular Devices) in which binding of hydrolyzed cyclic nucleotide substrate to immobilized metal coordination complexes increases fluorescence polarization (FP). Tetramethylrhodamine (TAMRA)-cGMP and fluorescein-cAMP were used as substrates, each at final concentration of 50 nmol/L. The PDE assay was done according to the manufacturer's specifications using either whole cell lysates or recombinant enzymes.

RXF-393 = assay: Tumor cell growth inhibition panel; format: cell-based; settings: Homo sapiens, Renal
Procedure: as §1, §2
(§3) Cells were plated in 96-well microtiter plates at a density of 5,000 cells per well and allowed to adhere overnight prior to treatment. Cells were treated with a 2-log concentration range of either SS or SBA and incubated for an additional 72 hours. For siRNA assays, cells were transfected in OptiMEM media with 0.5% SureFECT transfection reagent and 200 nmol/L of either negative control or PDE5 siRNA and incubated at 37° C. for 24 h prior to treatment. At the end of the incubation period, relative cell viability was compared to vehicle controls using the Cell Titer Glo Assay (Promega, Madison Wis.), which measures viable cells based on ATP content, according to the manufacturer's specifications.

LOX IMV1 = assay: Tumor cell growth inhibition panel; format: cell-based; settings: Homo sapiens, Melanoma
Procedure: as §1, §2, §3

Sequence of PDE2A (O00408 whole entry, species assumed): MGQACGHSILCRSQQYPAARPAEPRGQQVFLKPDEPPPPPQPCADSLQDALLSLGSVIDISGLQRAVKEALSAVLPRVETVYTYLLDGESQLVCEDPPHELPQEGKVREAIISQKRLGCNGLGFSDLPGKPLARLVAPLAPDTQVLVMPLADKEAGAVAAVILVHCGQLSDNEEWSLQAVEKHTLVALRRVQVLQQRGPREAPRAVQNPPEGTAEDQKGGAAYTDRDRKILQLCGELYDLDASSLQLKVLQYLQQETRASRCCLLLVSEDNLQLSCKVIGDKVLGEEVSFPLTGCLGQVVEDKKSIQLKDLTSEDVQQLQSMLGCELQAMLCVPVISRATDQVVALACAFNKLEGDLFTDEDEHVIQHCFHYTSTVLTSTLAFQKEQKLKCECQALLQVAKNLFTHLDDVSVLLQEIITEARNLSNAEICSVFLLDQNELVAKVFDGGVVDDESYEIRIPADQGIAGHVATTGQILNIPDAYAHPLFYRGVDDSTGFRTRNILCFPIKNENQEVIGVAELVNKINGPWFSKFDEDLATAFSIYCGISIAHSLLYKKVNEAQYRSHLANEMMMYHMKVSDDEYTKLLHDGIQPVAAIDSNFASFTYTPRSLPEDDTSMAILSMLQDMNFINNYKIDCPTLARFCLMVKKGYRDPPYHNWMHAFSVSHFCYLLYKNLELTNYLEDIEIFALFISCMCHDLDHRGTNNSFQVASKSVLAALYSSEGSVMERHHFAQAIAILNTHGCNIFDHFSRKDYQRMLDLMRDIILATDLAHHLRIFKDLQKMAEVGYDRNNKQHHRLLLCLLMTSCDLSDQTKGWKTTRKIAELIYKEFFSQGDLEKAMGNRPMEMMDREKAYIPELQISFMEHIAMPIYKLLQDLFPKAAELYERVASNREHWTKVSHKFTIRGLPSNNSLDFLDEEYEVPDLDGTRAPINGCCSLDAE
Sequence of COX2 (P79208 17-603): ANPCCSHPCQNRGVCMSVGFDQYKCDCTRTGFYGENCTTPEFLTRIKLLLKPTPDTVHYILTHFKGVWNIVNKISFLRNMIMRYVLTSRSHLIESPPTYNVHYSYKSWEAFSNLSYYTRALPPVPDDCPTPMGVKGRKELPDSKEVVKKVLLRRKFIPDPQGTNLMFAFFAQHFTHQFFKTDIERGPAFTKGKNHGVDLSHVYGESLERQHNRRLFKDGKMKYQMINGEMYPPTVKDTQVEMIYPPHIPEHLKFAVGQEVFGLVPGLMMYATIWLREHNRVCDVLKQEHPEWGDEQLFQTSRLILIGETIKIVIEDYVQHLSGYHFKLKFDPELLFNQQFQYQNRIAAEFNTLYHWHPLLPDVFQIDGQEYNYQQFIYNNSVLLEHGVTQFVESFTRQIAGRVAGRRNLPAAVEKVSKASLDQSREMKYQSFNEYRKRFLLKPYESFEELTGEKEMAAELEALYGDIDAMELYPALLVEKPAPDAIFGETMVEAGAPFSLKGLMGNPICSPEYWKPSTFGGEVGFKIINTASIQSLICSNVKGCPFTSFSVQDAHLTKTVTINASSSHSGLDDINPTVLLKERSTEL

## CC(C)(C)C1=NN(c2ccc(C(=O)O)cc2)C(c2ccc(Cl)cc2Cl)C1 (stereo not drawn) [Compound 12, 4-(3-(tert-Butyl)-5-(2,4-dichlorophenyl)-4,5-dihydro-1H-pyrazol-1-yl)benzoic acid]
COX2
  IC50: > 100 µM
[1]
  tumor cell growth inhibitory activity: broad spectrum growth inhibitory activity
PDE2A; substrate cAMP
  IC50: > 50 µM
PDE2A; substrate cGMP
  IC50: > 50 µM
RXF-393
  IC50: 46.7 µM
LOX IMV1
  IC50: 50.5 µM
